Measurements published in ChEMBL document CHEMBL2146439, “Synthesis and pharmacological evaluation of a novel series of 3-aryl-2-(2-substituted-4-methylthiazole-5-yl)thiazolidin-4-one as possible anti-inflammatory and antimicrobial agents” (2012).
≈ marks a conversion by molar mass, not a printed value. Calls of active or inactive are those of the source. The calls are words filed in the database; no cut-off is given here.

Key:
Type in all cases: functional
Rattus norvegicus [1] = assay: Antiinflammatory activity in Wistar albino rat assessed as inhibition of carrageenan-induced paw edema at 40 mg/kg, po administered 1 hr prior to carrageenan challenge measured 2 hrs post carrageenan challenge relative to control
Rattus norvegicus [2] = assay: Antiinflammatory activity in Wistar albino rat assessed as inhibition of carrageenan-induced paw edema at 40 mg/kg, po administered 1 hr prior to carrageenan challenge measured 1 hr post carrageenan challenge relative to control
Rattus norvegicus [3] = assay: Antiinflammatory activity in Wistar albino rat assessed as inhibition of carrageenan-induced paw edema at 40 mg/kg, po administered 1 hr prior to carrageenan challenge measured 4 hrs post carrageenan challenge relative to control
Escherichia coli = assay: Antibacterial activity against Escherichia coli ATCC 25922 after 2 days by microdilution broth method; details: ATCC 25922, 48 h
Candida albicans = assay: Antifungal activity against Candida albicans ATCC 10231 after 2 days by microdilution broth method; details: ATCC 10231, 48 h
Staphylococcus aureus = assay: Antibacterial activity against Staphylococcus aureus ATCC 25923 after 2 days by microdilution broth method; details: ATCC 25923, 48 h
Aspergillus niger = assay: Antifungal activity against Aspergillus niger ATCC 9029 after 2 days by microdilution broth method; details: ATCC 9029, 48 h

SMILES	inhibition in vivo at 40 mg/kg (Rattus norvegicus [1]) [%]	inhibition in vivo at 40 mg/kg (Rattus norvegicus [2]) [%]	inhibition in vivo at 40 mg/kg (Rattus norvegicus [3]) [%]	MIC (Escherichia coli) [µM]	MIC (Candida albicans) [µM]	MIC (Staphylococcus aureus) [µM]	MIC (Aspergillus niger) [µM]	inhibition (Rattus norvegicus [1])	inhibition (Rattus norvegicus [2])	inhibition (Rattus norvegicus [3])
COc1ccc2c(c1)c(CC(=O)O)c(C)n2C(=O)c1ccc(Cl)cc1 [INDOMETHACIN]	78.3	70.2	87.3							
COc1ccc(N2C(=O)CSC2c2sc(-c3ccccc3)nc2C)cc1 (configuration not stated)	48.1	52.3	67.1	65.5 (≈ 25.1 µg/mL)	32.8 (≈ 12.5 µg/mL)	65.5 (≈ 25.1 µg/mL)	32.8 (≈ 12.5 µg/mL)			
OC(Cn1cncn1)(Cn1cncn1)c1ccc(F)cc1F [FLUCONAZOLE]					2.55 (≈ 0.781 µg/mL)		5.09 (≈ 1.56 µg/mL)			
Cc1nc(-c2ccc(Cl)cc2)sc1C1SCC(=O)N1c1ccc(Cl)cc1 (configuration not stated)	45.7	69.3	43.1	29.7 (≈ 12.5 µg/mL)	119 (≈ 50 µg/mL)	59.3 (≈ 25 µg/mL)	119 (≈ 50 µg/mL)			
Cc1nc(-c2ccc(Cl)cc2)sc1C1SCC(=O)N1c1ccccc1 (configuration not stated)				32.3 (≈ 12.5 µg/mL)	129 (≈ 50 µg/mL)	32.3 (≈ 12.5 µg/mL)	129 (≈ 50 µg/mL)			
Cc1nc(-c2ccc(Cl)cc2)sc1C1SCC(=O)N1c1ccc(F)cc1 (configuration not stated)	63.9	63.4	67.6	15.4 (≈ 6.25 µg/mL)	30.9 (≈ 12.5 µg/mL)	30.9 (≈ 12.5 µg/mL)	61.7 (≈ 25 µg/mL)			
Cc1nc(Cc2ccc(Cl)cc2)sc1C1SCC(=O)N1c1ccc(Cl)cc1 (configuration not stated)	40.1	48.9	53.9	57.4 (≈ 25 µg/mL)	28.7 (≈ 12.5 µg/mL)	28.7 (≈ 12.5 µg/mL)	28.7 (≈ 12.5 µg/mL)			
Cc1nc(-c2ccccc2)sc1C1SCC(=O)N1c1ccc(F)cc1 (configuration not stated)	63.4	63.9	85.3	33.7 (≈ 12.5 µg/mL)	33.7 (≈ 12.5 µg/mL)	67.5 (≈ 25 µg/mL)	33.7 (≈ 12.5 µg/mL)			
Cc1nc(-c2ccccc2)sc1C1SCC(=O)N1c1ccccc1 (configuration not stated)	50.6	44.4	63.7	70.9 (≈ 25 µg/mL)	142 (≈ 50 µg/mL)	70.9 (≈ 25 µg/mL)	142 (≈ 50 µg/mL)			
O=C(O)c1cn(C2CC2)c2cc(N3CCNCC3)c(F)cc2c1=O [CIPROFLOXACIN]				2.35 (≈ 0.779 µg/mL)		4.7 (≈ 1.56 µg/mL)				
Cc1nc(-c2ccc(Cl)cc2)sc1C1SCC(=O)N1c1ccc(F)c(Cl)c1 (configuration not stated)	45.1	53.4	65.1	56.9 (≈ 25 µg/mL)	114 (≈ 50 µg/mL)	56.9 (≈ 25 µg/mL)	114 (≈ 50 µg/mL)			
Cc1ccc(N2C(=O)CSC2c2sc(-c3ccccc3)nc2C)cc1 (configuration not stated)	60.1	58.1	80.6	60.4 (≈ 22.1 µg/mL)	30.2 (≈ 11.1 µg/mL)	121 (≈ 44.3 µg/mL)	30.2 (≈ 11.1 µg/mL)			
Cc1nc(-c2ccccc2)sc1C1SCC(=O)N1c1ccc(F)c(Cl)c1 (configuration not stated)	20.9	55.9	28.6	61.7 (≈ 25 µg/mL)	123 (≈ 50 µg/mL)	61.7 (≈ 25 µg/mL)	123 (≈ 50 µg/mL)			
Cc1nc(Cc2ccc(Cl)cc2)sc1C1SCC(=O)N1c1ccc(F)cc1 (configuration not stated)				59.7 (≈ 25 µg/mL)	14.9 (≈ 6.25 µg/mL)	59.7 (≈ 25 µg/mL)	14.9 (≈ 6.25 µg/mL)			
Cc1ccc(N2C(=O)CSC2c2sc(Cc3ccc(Cl)cc3)nc2C)cc1 (configuration not stated)	61.4	59.9	81.3	60.2 (≈ 25 µg/mL)	30.1 (≈ 12.5 µg/mL)	60.2 (≈ 25 µg/mL)	15.1 (≈ 6.25 µg/mL)			
Cc1nc(Cc2ccc(Cl)cc2)sc1C1SCC(=O)N1c1ccccc1 (configuration not stated)				67.8 (≈ 27.2 µg/mL)	33.9 (≈ 13.6 µg/mL)	67.8 (≈ 27.2 µg/mL)	33.9 (≈ 13.6 µg/mL)	inactive	inactive	inactive
Cc1nc(Cc2ccc(Cl)cc2)sc1C1SCC(=O)N1c1ccc(F)c(Cl)c1 (configuration not stated)	45.1	40.7	68.9	55.1 (≈ 25 µg/mL)	27.6 (≈ 12.5 µg/mL)	55.1 (≈ 25 µg/mL)	27.6 (≈ 12.5 µg/mL)			
Cc1nc(-c2ccccc2)sc1C1SCC(=O)N1c1ccc(Cl)cc1 (configuration not stated)	59.1	54.8	80.8	64.6 (≈ 25 µg/mL)	129 (≈ 50 µg/mL)	129 (≈ 50 µg/mL)	129 (≈ 50 µg/mL)			
COc1ccc(N2C(=O)CSC2c2sc(Cc3ccc(Cl)cc3)nc2C)cc1 (configuration not stated)	28.6	20.9	55.9	58 (≈ 25 µg/mL)	14.5 (≈ 6.25 µg/mL)	58 (≈ 25 µg/mL)	14.5 (≈ 6.25 µg/mL)			
COc1ccc(N2C(=O)CSC2c2sc(-c3ccc(Cl)cc3)nc2C)cc1 (configuration not stated)	80.7	54	59.1	30 (≈ 12.5 µg/mL)	30 (≈ 12.5 µg/mL)	30 (≈ 12.5 µg/mL)	30 (≈ 12.5 µg/mL)			
Cc1ccc(N2C(=O)CSC2c2sc(-c3ccc(Cl)cc3)nc2C)cc1 (configuration not stated)	37.6	38.3	63.9	31.2 (≈ 12.5 µg/mL)	15.6 (≈ 6.25 µg/mL)	31.2 (≈ 12.5 µg/mL)	31.2 (≈ 12.5 µg/mL)			
